The source of these data is paper PMC11414674, “Cryo-EM structure of ACE2-SIT1 in complex with tiagabine” (The Journal of Biological Chemistry, 2024).

Data set [1] deals with T1, SIT1 (SLC6A20) (Homo sapiens, UniProt Q9NP91). The experiment in a line: […]proline uptake in Xenopus oocytes, inhibitor at […]. On the set-up: with ACE2. The settings on record: read-out: % inhibition at 100 μM. Format: cell-based.
The next data set deals with T2, B0AT2 (SLC6A15) (Homo sapiens, UniProt Q9H2J7).
T2 sequence (Q9H2J7 1-730): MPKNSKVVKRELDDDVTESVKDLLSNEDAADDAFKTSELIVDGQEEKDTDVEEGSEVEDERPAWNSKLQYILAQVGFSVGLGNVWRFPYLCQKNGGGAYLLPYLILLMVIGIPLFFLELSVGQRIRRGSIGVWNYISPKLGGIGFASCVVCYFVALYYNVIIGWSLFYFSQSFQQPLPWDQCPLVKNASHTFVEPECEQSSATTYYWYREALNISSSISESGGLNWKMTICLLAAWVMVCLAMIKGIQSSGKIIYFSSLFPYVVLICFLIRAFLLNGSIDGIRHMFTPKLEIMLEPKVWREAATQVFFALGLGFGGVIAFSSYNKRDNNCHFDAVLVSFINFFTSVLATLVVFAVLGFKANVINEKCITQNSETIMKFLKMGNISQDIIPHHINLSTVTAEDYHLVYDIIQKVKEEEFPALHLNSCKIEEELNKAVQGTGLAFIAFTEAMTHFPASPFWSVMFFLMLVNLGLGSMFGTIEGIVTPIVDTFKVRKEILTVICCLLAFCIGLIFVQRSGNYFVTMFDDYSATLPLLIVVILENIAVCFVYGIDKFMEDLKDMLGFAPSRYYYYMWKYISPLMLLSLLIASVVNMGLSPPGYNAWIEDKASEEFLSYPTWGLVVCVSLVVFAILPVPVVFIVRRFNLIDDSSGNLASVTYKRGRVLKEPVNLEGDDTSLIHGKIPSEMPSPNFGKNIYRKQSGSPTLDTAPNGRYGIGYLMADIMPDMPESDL
The experiment in a line: labelled leucine uptake in Xenopus oocytes, tiagabine at […]. The class given is cell-based.

Data set [2] has as its target T1, SIT1 (SLC6A20). Description: cryo-EM structure at […] Å; IC50 from […]proline uptake in Xenopus oocytes expressing SIT1-ACE2 ([…] proline). On the set-up: full-length human SIT1, N-terminal FLAG tag, in complex with full-length ACE2; with ACE2. Format: cell-based.
Substrate in data set [3]: O=C(O)[C@@H]1CCCN1
Description: cells, lysate or membranes. The following applies: Na+ and Cl- orthosteric substrate site.

T1 sequence (Q9BYF1 18-805 partner, one chain of several): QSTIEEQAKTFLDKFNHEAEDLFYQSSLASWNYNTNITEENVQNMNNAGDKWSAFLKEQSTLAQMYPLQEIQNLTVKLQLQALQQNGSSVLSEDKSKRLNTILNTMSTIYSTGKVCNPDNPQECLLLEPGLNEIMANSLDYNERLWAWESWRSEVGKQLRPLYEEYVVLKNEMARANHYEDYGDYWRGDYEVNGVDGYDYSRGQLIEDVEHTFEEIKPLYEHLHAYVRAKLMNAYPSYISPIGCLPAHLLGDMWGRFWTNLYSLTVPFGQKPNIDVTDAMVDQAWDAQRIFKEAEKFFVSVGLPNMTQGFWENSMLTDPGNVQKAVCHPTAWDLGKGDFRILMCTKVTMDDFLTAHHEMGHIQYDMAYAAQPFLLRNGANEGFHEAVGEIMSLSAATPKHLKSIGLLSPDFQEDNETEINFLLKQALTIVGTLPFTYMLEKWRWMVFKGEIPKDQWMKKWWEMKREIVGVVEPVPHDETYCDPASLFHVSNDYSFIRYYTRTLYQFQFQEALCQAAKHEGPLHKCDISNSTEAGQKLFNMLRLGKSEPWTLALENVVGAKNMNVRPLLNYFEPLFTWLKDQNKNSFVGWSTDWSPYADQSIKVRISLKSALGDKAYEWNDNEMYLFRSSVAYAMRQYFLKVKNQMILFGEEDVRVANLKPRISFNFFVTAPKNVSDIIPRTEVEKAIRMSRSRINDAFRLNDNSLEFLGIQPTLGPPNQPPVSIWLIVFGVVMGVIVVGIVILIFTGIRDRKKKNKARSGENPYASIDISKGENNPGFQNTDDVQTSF

As to `O=C(O)C1=CCCN(CCOC(c2ccc(C(F)(F)F)cc2)c2ccc(C(F)(F)F)cc2)C1` [CI966], the inhibition (commonly the share of the control response that was lost under treatment) at 100 µM at SIT1 (SLC6A20) [1] was found to be 53%.

As to `O=C(O)C1CCCN(CCC=C(c2ccccc2)c2ccccc2)C1` (centres unmarked) [SKF89976A], at SIT1 (SLC6A20) [1], the inhibition at 100 µM turned out to be 58%.

In the case of `Cc1ccsc1C(=CCCN1CCC[C@@H](C(=O)O)C1)c1sccc1C` [tiagabine], the “labelled leucine uptake in Xenopus oocytes, tiagabine at 100 μM” value on B0AT2 (SLC6A15) is “The branched-chain amino acid transporter B^0AT2 (SLC6A15) was similarly sensitive to inhibition by Tiagabine”. Moreover, the IC50 (in general, the concentration that gives 50% inhibition) against SIT1 (SLC6A20) [2] is 18 ± 4 µM.

B1: SIT1 (SLC6A20) (Homo sapiens) (protein)
chain: MEKARPLWANSLQFVFACISYAVGLGNVWRFPYLCQMYGGGSFLVPYIIMLIVEGMPLLYLELAVGQRMRQGSIGAWRTISPYLSGVGVASVVVSFFLSMYYNVINAWAFWYLFHSFQDPLPWSVCPLNGNHTGYDEECEKASSTQYFWYRKTLNISPSLQENGGVQWEPALCLLLAWLVVYLCILRGTESTGKVVYFTASLPYCVLIIYLIRGLTLHGATNGLMYMFTPKIEQLANPKAWINAATQIFFSLGLGFGSLIAFASYNEPSNNCQKHAIIVSLINSFTSIFASIVTFSIYGFKATFNYENCLKKVSLLLTNTFDLEDGFLTASNLEQVKGYLASAYPSKYSEMFPQIKNCSLESELDTAVQGTGLAFIVYTEAIKNMEVSQLWSVLYFFMLLMLGIGSMLGNTAAILTPLTDSKIISSHLPKEAISGLVCLVNCAIGMVFTMEAGNYWFDIFNDYAATLSLLLIVLVETIAVCYVYGLRRFESDLKAMTGRAVSWYWKVMWAGVSPLLIVSLFVFYLSDYILTGTLKYQAWDASQGQLVTKDYPAYALAVIGLLVASSTMCIPLAALGTFVQRRLKRGDADPVA
Consider B1, for which, in data set [3], the Km (usually the substrate concentration at which the rate is half of its maximum) was found to be 130 µM.
